Our source for the relative viability values is the supplement of paper PMC10307832.

What all share (test): relative viability (nuclei count vs DMSO), 5 days (fraction); higher = more cells survive
Compound in the experiment “Apatinib + Foretinib”: N#CC1(c2ccc(NC(=O)c3cccnc3NCc3ccncc3)cc2)CCCC1 [Apatinib] + COc1cc2c(Oc3ccc(NC(=O)C4(C(=O)Nc5ccc(F)cc5)CC4)cc3F)ccnc2cc1OCCCN1CCOCC1 [Foretinib] (partner 0.25 µM)
A digest of the protocol:
(§1)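 The day after seeding in 1536-well plates, lung cancer cell lines were treated by pin tool with a single drug, or with a fixed anchor-drug dose together with five library-drug doses (not always all listed) in √10 steps. After 5 days, a combined fix-and-stain solution (final 0.05% Triton X-100, 1% formaldehyde, 1 ug/ml Hoechst) was added. Nuclei counted on 4× images gave relative viability as treated counts over vehicle counts, reported as the median of duplicate plates.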

Compound in the experiment “Metformin + AZD7762”: CN(C)C(=N)NC(=N)N [Metformin] + NC(=O)Nc1cc(-c2cccc(F)c2)sc1C(=O)N[C@H]1CCCNC1 [AZD7762] (partner 0.2 µM)
The gist of the method: as §1

Compound in the experiment “Metformin + Olaparib”: CN(C)C(=N)NC(=N)N [Metformin] + O=C(c1cc(Cc2n[nH]c(=O)c3ccccc23)ccc1F)N1CCN(C(=O)C2CC2)CC1 [Olaparib] (partner 8 µM)
The gist of the method:
as §1

Compound in the experiment “Apatinib + Crizotinib”: N#CC1(c2ccc(NC(=O)c3cccnc3NCc3ccncc3)cc2)CCCC1 [Apatinib] + C[C@@H](Oc1cc(-c2cnn(C3CCNCC3)c2)cnc1N)c1c(Cl)ccc(F)c1Cl [Crizotinib] (partner 1 µM)
A digest of the protocol: as §1

Take LC-2-ad: the relative viability was 0.935 in the experiment with Apatinib + Foretinib (first compound 0.08 µM); 0.89 in the experiment with Apatinib + Foretinib (first compound 0.253 µM); 0.904 with Apatinib + Foretinib (first compound 0.8 µM); 0.947 with Apatinib + Foretinib (first compound 2.53 µM); 0.868 with Apatinib + Foretinib (first compound 8 µM); 0.885 with Metformin + AZD7762 (first compound 31.62 µM). Also, the relative viability with Metformin + AZD7762 (first compound 100 µM) was 0.906; with Metformin + AZD7762 (first compound 316.23 µM), 0.811; in the experiment with Metformin + AZD7762 (first compound 1000 µM), 0.87; in the experiment with Metformin + Olaparib (first compound 31.62 µM), 0.537; with Metformin + Olaparib (first compound 100 µM), 0.562; with Metformin + Olaparib (first compound 316.23 µM), 0.505. For the same cell line, the relative viability with Metformin + Olaparib (first compound 1000 µM) came to 0.587; in the experiment with Apatinib + Crizotinib (first compound 0.08 µM), 0.477; in the experiment with Apatinib + Crizotinib (first compound 0.253 µM), 0.496; with Apatinib + Crizotinib (first compound 0.8 µM), 0.463; with Apatinib + Crizotinib (first compound 2.53 µM), 0.473; with Apatinib + Crizotinib (first compound 8 µM), 0.482.

As for NCI-H2085, the relative viability with Apatinib + Foretinib (first compound 0.08 µM) is 0.991; with Apatinib + Foretinib (first compound 0.253 µM), 1.05; with Apatinib + Foretinib (first compound 0.8 µM), 0.79; in the experiment with Apatinib + Foretinib (first compound 2.53 µM), 0.854; with Apatinib + Foretinib (first compound 8 µM), 0.817; in the experiment with Metformin + AZD7762 (first compound 10 µM) it was 0.873. Besides, the relative viability with Metformin + AZD7762 (first compound 31.62 µM) came to 0.99; with Metformin + AZD7762 (first compound 100 µM), 0.979; with Metformin + AZD7762 (first compound 316.23 µM) it was 0.893; with Metformin + AZD7762 (first compound 1000 µM) it was 0.989; with Metformin + Olaparib (first compound 10 µM) it was 0.621; with Metformin + Olaparib (first compound 31.62 µM) it was 0.633. Further, the relative viability with Metformin + Olaparib (first compound 100 µM) is 0.596; with Metformin + Olaparib (first compound 316.23 µM), 0.591; with Metformin + Olaparib (first compound 1000 µM), 0.654; with Apatinib + Crizotinib (first compound 0.08 µM) it was 0.89; with Apatinib + Crizotinib (first compound 0.253 µM) it was 0.794; in the experiment with Apatinib + Crizotinib (first compound 0.8 µM), 0.797. The relative viability with Apatinib + Crizotinib (first compound 2.53 µM) turned out to be 0.777; in the experiment with Apatinib + Crizotinib (first compound 8 µM), 0.623.

Take RERF-LC-KJ: the relative viability was 0.875 with Apatinib + Foretinib (first compound 0.08 µM); 0.931 in the experiment with Apatinib + Foretinib (first compound 0.253 µM); 0.857 with Apatinib + Foretinib (first compound 0.8 µM); 0.737 with Apatinib + Foretinib (first compound 2.53 µM); 0.733 with Apatinib + Foretinib (first compound 8 µM); 0.703 with Metformin + AZD7762 (first compound 10 µM). The relative viability in the experiment with Metformin + AZD7762 (first compound 31.62 µM) turned out to be 0.927; in the experiment with Metformin + AZD7762 (first compound 100 µM), 0.572; with Metformin + AZD7762 (first compound 316.23 µM) it was 0.799; in the experiment with Metformin + AZD7762 (first compound 1000 µM) it was 1; in the experiment with Metformin + Olaparib (first compound 10 µM), 0.651; with Metformin + Olaparib (first compound 31.62 µM), 0.715. The relative viability with Metformin + Olaparib (first compound 100 µM) is 0.757; with Metformin + Olaparib (first compound 316.23 µM), 0.625; in the experiment with Metformin + Olaparib (first compound 1000 µM) it was 0.63; in the experiment with Apatinib + Crizotinib (first compound 0.08 µM), 0.776; with Apatinib + Crizotinib (first compound 0.253 µM), 0.834; in the experiment with Apatinib + Crizotinib (first compound 0.8 µM), 0.778. Also, the relative viability with Apatinib + Crizotinib (first compound 2.53 µM) worked out at 0.704; with Apatinib + Crizotinib (first compound 8 µM), 0.629.

On to LOU-NH91, for which the relative viability with Apatinib + Foretinib (first compound 0.08 µM) turned out to be 0.979; with Apatinib + Foretinib (first compound 0.253 µM), 0.891; with Apatinib + Foretinib (first compound 0.8 µM), 0.836; with Apatinib + Foretinib (first compound 2.53 µM), 0.891; with Apatinib + Foretinib (first compound 8 µM), 0.829; with Metformin + AZD7762 (first compound 10 µM) it was 0.743. Further, the relative viability in the experiment with Metformin + AZD7762 (first compound 31.62 µM) was determined as 0.668; with Metformin + AZD7762 (first compound 100 µM) it was 0.716; in the experiment with Metformin + AZD7762 (first compound 316.23 µM), 0.681; with Metformin + AZD7762 (first compound 1000 µM) it was 0.718; with Metformin + Olaparib (first compound 10 µM), 0.859; with Metformin + Olaparib (first compound 31.62 µM) it was 0.894. The relative viability with Metformin + Olaparib (first compound 100 µM) worked out at 0.865; with Metformin + Olaparib (first compound 316.23 µM), 0.883; in the experiment with Metformin + Olaparib (first compound 1000 µM), 0.845; with Apatinib + Crizotinib (first compound 0.08 µM) it was 0.76; with Apatinib + Crizotinib (first compound 0.253 µM), 0.751; with Apatinib + Crizotinib (first compound 0.8 µM), 0.722. For the same cell line, the relative viability with Apatinib + Crizotinib (first compound 2.53 µM) was found to be 0.69; in the experiment with Apatinib + Crizotinib (first compound 8 µM), 0.629.
